{"source": "paper PMC5712521", "about": "“Dendrogenin A drives LXR to trigger lethal autophagy in cancers” (Nature Communications, 2017)", "test_system": "HL60 cells", "assay": "Immunoblot densitometry", "type": "cell-based, human", "conditions": "5 µM DDA, 24 h", "method": "Immunoblotting was carried out as described previously. Proteins were separated on SDS-PAGE gels, electro-transferred onto polyvinylidene difluoride membranes and incubated overnight at 4 °C with the following antibodies: anti-Atg3, anti-Atg5 (D1G9), anti-Atg7 (D12B11), anti-Beclin (D40C5), anti-caspase-3 (Cell Signaling), anti-Bcl-2 (Millipore), anti-Bax (Millipore), anti-LC3 (Sigma-Aldrich), anti-LXRα (SantaCruz), anti-LXRβ (SantaCruz), anti-Nur77 (Active motif), anti-NOR1 (R&D systems), anti-PARP (Cell Signaling), anti-Vps34 (Cell Signaling), or anti-Actin (Millipore). For visualization, an ECL plus kit (Amersham Biosciences) was used, and chemiluminescence was measured by autoradiography (Supplementary Fig. 9). Specific bands were quantified with ImageQuant software. […]\n(n=16- 20 mice/group) engrafted with KG1 cells or HL60 cells were treated with DDA (20 mg/kg/day, i.p.) or solvent vehicle (control). Tumor growth was monitored over time and was analyzed for significance using repeated measures ANOVA (***P<0.001). The mean tumor volumes ± SEM are shown. e Average tumor weight at the end of the experiments in d. *P<0.5, **P<0.01, ANOVA. f Mean tumor volumes measured at the end of the experiments for HL60 and KG1 graf ted into NOD/SCID or NMRI-Fo x1 -nude mice treated with DDA (40 mg/kg/day, p.o. or 20 mg/kg/day, i.p.) or solvent vehicle (control) (n=10- 20 mice per group). […]"}
{"molecule": "CC(C)CCC[C@@H](C)[C@H]1CC[C@H]2[C@@H]3C[C@@H](NCCc4cnc[nH]4)[C@@]4(O)C[C@@H](O)CC[C@]4(C)[C@H]3CC[C@]12C", "note": "[DDA, Dendrogenin A]", "values": [{"measurement": "NOR1 protein, densitometry relative to untreated", "result": 1.9}, {"measurement": "Nur77 protein, densitometry relative to untreated", "result": 1.8}]}
